Measurements reported in the supplement of paper PMC10307832.

Columns and labels:
Assay in all cases: relative viability (nuclei count vs DMSO), 5 days (fraction); higher = more cells survive
Tanzisertib + Foretinib = compound: O[C@H]1CC[C@H](Nc2ncc3nc(Nc4c(F)cc(F)cc4F)n([C@H]4CCOC4)c3n2)CC1 [Tanzisertib] + COc1cc2c(Oc3ccc(NC(=O)C4(C(=O)Nc5ccc(F)cc5)CC4)cc3F)ccnc2cc1OCCCN1CCOCC1 [Foretinib] (partner 0.25 µM)
Summary of the method: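 Dosing by pin tool came one day after lung cancer cell lines were seeded in 1536-well plates, using either one drug or a fixed anchor-drug dose plus five library-drug doses (not always all listed) in √10 steps. After 5 days, nuclei were counted on 4× images. Relative viability is treated-well nuclei count divided by vehicle-well nuclei count, and values are medians of duplicate plates.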

[1] = compound: C1CNCCC1C2=CC(=NN2)C3=CC=NC=C3
Summary of the method: (§1)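 In 1536-well plates, lung cancer cell lines rested overnight at 37 °C before five library-drug doses (not always all listed), √10 apart, were pinned onto vehicle-anchored plates. Nuclei were counted with MetaXpress from 4× Hoechst images taken after 5 days without medium change. Viability compares treated-well with vehicle-well nuclei as a median over plates, and plates needed control CV below 25% plus at least one doubling to pass.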

[2] = compound: C[C@@H](N)c1ccc(C(=O)Nc2ccnc3[nH]ccc23)cc1
Summary of the method: as §1

Tanzisertib = compound: O[C@H]1CC[C@H](Nc2ncc3nc(Nc4c(F)cc(F)cc4F)n([C@H]4CCOC4)c3n2)CC1 [Tanzisertib]
Summary of the method: as §1

Cell Line	relative viability (Tanzisertib + Foretinib; first compound 0.08 µM)	relative viability (Tanzisertib + Foretinib; first compound 0.253 µM)	relative viability (Tanzisertib + Foretinib; first compound 0.8 µM)	relative viability (Tanzisertib + Foretinib; first compound 2.53 µM)	relative viability (Tanzisertib + Foretinib; first compound 8 µM)	relative viability ([1]; 0.08 µM)	relative viability ([1]; 0.8 µM)	relative viability ([1]; 2.53 µM)	relative viability ([1]; 8 µM)	relative viability ([2]; 0.04 µM)	relative viability ([2]; 0.1265 µM)	relative viability ([2]; 0.4 µM)	relative viability ([2]; 1.265 µM)	relative viability ([2]; 4 µM)	relative viability (Tanzisertib; 0.08 µM)	relative viability (Tanzisertib; 0.253 µM)	relative viability (Tanzisertib; 0.8 µM)	relative viability (Tanzisertib; 2.53 µM)	relative viability (Tanzisertib; 8 µM)
NCI-H1355	1.03	0.961	0.965	1.04	0.948	0.955	0.957	1.08	0.977	0.961	1.01	1.12	0.909	0.986	1.08	0.978	1.09	0.96	0.911
EKVX	1.08	0.681	0.759	0.872	0.497	1.03	0.877	1.12	0.989	1.09	1.12	1.12	0.811	0.885	1.08	1.05	0.96	0.901	0.723
NCI-H441	0.488	0.797	1.03	0.994	0.752	0.908	1.12	1.06	0.912	1.05	1.15	1.31	0.906	0.827	1.09	0.888	0.93	0.887	0.891
NCI-H1975	0.968	0.968	1.03	0.946	0.841	0.969	0.873	0.998	0.964	0.838	0.875	0.942	0.72	0.602	0.935	1.02	0.934	0.955	0.874
HCC-78	0.545	0.614	0.584	0.583	0.585	1.04	0.706	1	1.03	1.23	0.933	1.23	0.72	0.92	1.06	1.02	0.986	0.97	0.682
NCI-H2085	0.893	1.11	1.14	1.03	1.05	1.09		1.01	0.983	0.944	0.96	0.958	0.935	0.861	0.987	0.991	1.02	1.03	0.976
H3255	0.729	0.77	0.831	0.841	0.696	0.934	0.952	1.2	1	1	1.21	1.16	1.01	0.925	0.998	1.03	1.08	0.957	0.599
NCI-H2087	1.23	0.992	1.12	1.06	1.09	1	1.12	0.996	0.96	0.988	1.01	0.916	0.92	0.711	1.19	0.969	1.25	1.09	0.916
LC-2-ad	0.924	0.913	0.908	0.877	0.884	0.978	1.09	1	0.964	0.916	0.916	1.02	0.719	0.838	1.1	1.03	1.09	1.03	0.506
PC-3 [JPC-3]	1.07	1.06	1.08	1.06	0.889	1.02	1	1.08	1.03	0.986	1.04	0.997	0.949	0.884	1.02	1.06	1.11	0.983	0.871
EBC-1	0.102	0.093	0.104	0.117	0.109	1.09	0.981	1.06	1.02	1.06	1.01	1.08	1.01	0.991	1.16	0.991	0.971	0.871	0.825
HCC-15	1.13	1.05	1.11	1.02	1.08	0.987	1.1	0.98	0.939	1.03	0.971	1.02	0.623	0.908	1.16	1	1.04	0.944	0.768
NCI-H1563	0.983	0.854	0.896	0.96	0.72	0.757	0.875	0.966	1.04	0.875	1.07	0.978	0.914	1.03	1.03	1.03	0.995	0.997	0.99
COR-L 105	0.99	1.03	1.32	1.27	0.719	0.857	0.925	1.02	0.923	0.91	0.964	1.11	0.7	0.735	1.08	0.899	0.918	1.15	0.706
NCI-H520	0.792	0.734	0.83	0.753	0.757	0.899	0.816	0.988	1.03	1.14	1.12	0.999	1.03	1.15	1.09	0.981	1.03	0.919	0.907
LU99A	0.828	0.81	0.798	0.765	0.837	0.948	1.01	1.04	0.946		0.989	0.96	0.924	0.692	1.1	1.03	1.03	1.11	0.938
NCI-H1666	0.957	0.96	0.978	1.01	0.976	0.927	1.04	1.11	0.981	1.13	1.06	1.23	1.23	1.26	0.966	1.04	1.03	1.07	1.09
